{
  "source": "paper PMC12298822",
  "about": "(Molecules, 2025)",
  "key": {"[1]": {"assay": "Pharmacokinetic study after a single oral 100 mg sitagliptin tablet in healthy Korean male subjects (LC-MS/MS of plasma)", "assay_type": "in vivo, human", "conditions": "single oral 100 mg tablet, fasting", "description": "(§1) Human plasma samples were removed from a −70 °C deep freezer and thawed at room temperature. After vortexing and centrifugation, 100 µL of plasma was transferred into a glass tube. To this, 20 µL of the IS (1000 ng/mL) was added, followed by the addition of 2 mL of MTBE as the extraction solvent. The mixture was vortexed vigorously for 10 min and centrifuged at 1699 g for 10 min at 4 °C. The upper organic layer (2 mL) was carefully transferred to a new tube and evaporated to dryness under a nitrogen stream at 40 °C. The dried residue was reconstituted with a total volume of 1 mL of a reconstitution solvent composed of 0.01% formic acid in DW and 100% ACN (1:1, v/v), vortexed for 10 min, and centrifuged again at 1699× g. A 5 µL aliquot of the clear supernatant was injected into the LC–MS/MS system for analysis.\nThis study procedures were conducted with the principles of the Helsinki Declaration (World Medical Association Declaration of Helsinki 2000) and Korean Good Clinical Practice guidelines. The study was approved by the Institutional Review Board (IRB) of Kyung Hee University Hospital (IRB No. KHUH 2023-07-039; approval date: 20 October 2023). […] Blood samples were collected using EDTA-K2 anticoagulant tubes at various time points: pre-dose (0 h), and at 0.5, 1, 1.5, 2, 2.5, 3, 4, 6, 8, 16, 24, and 48 h following administration. Once collected, the blood samples were centrifuged at 3000 rpm for 10 min to separate the plasma, which was then transferred to labeled tubes and stored at −70 °C until analysis. All clinical procedures, including dosing, sampling, and analysis, were conducted consistently across all subjects.\nPharmacokinetic parameters such as Cmax (maximum plasma concentration), Tmax (time to reach Cmax), T1/2 (elimination half-life), and CL/F (apparent oral clearance) were determined from individual plasma concentration–time profiles. Non-compartmental analysis for extravascular administration was performed using BA Cal 2007 software (MFDS, version 1.0.0). This analysis calculated parameters including AUClast (area under the concentration–time curve from 0 to 48 h) and AUCinf (area under the curve extrapolated to infinity). The statistical analysis of the pharmacokinetic data was conducted using K-BE Test II software (version 2.0.2), which was developed and distributed by the MFDS [26]."}, "[2]": {"conditions": "100 mg dose; cited from earlier work"}, "[3]": {"assay": "Stability of sitagliptin in human plasma samples under storage and handling conditions", "assay_type": "in vitro ADME", "description": "as §1\nThe stability of both stock and working solutions was evaluated at low and high QC levels (n = 3) under storage conditions of room temperature (25 °C) for 3 h and −20 °C for 7 h. All results were within the acceptable deviation limit of ±15% from the nominal concentrations. To assess the plasma stability of the analyte, low, medium, and high QC levels (n = 3) were tested under various conditions, including refrigerated storage at 4 °C for 24 h, deep-freezing at −70 °C for 7 h, three freeze–thaw cycles (between −70 °C and room temperature), and storage in the autosampler at 10 °C for 30 h. All measured concentrations under these conditions met the predefined acceptance criteria of ±15%, confirming the robustness and reliability of the analytical method."}, "[4]": {"conditions": "cited from earlier work"}, "[5]": {"assay": "Stability of stock and working solutions", "assay_type": "physicochemical", "description": "These stock solutions were diluted with 50% acetonitrile to prepare working standard solutions. The working solutions’ calibration curve (CC) concentrations were set at 50, 100, 500, 1000, 2500, 5000, and 10,000 ng/mL, while the quality control (QC) concentrations were 150, 3000, and 8000 ng/mL. The IS concentration was prepared at 1000 ng/mL. All working stock solutions were prepared and stored at −20 °C until use. […] Consequently, the final calibration curve range was 5–1000 ng/mL. […] All results were within the acceptable deviation limit of ±15% from the nominal concentrations. To assess the plasma stability of the analyte, low, medium, and high QC levels (n = 3) were tested under various conditions, including refrigerated storage at 4 °C for 24 h, deep-freezing at −70 °C for 7 h, three freeze–thaw cycles (between −70 °C and room temperature), and storage in the autosampler at 10 °C for 30 h. All measured concentrations under these conditions met the predefined acceptance criteria of ±15%, confirming the robustness and reliability of the analytical method."}, "[6]": {"conditions": "cited from earlier work", "remark": "listed apart in the source"}},
  "data": [
    {"compound": "N[C@@H](CC(=O)N1CCn2c(nnc2C(F)(F)F)C1)Cc1cc(F)c(F)cc1F", "note": "[Sitagliptin, 7-[(3R)-3-amino-1-oxo-4-(2,4,5-trifluorophenyl)butyl]-5,6,7,8-tetrahydro-3-(trifluoromethyl)]", "values": [
      {"measurement": "half-life", "setting": "[1]; human, plasma, n = 8, mean", "result": "8.47 ± 3.08", "unit": "h"},
      {"measurement": "Cmax", "setting": "[1]; human, n = 8, plasma, mean", "result": 0.373, "unit": "µg/mL"},
      {"measurement": "Tmax", "setting": "[1]; human, n = 8, plasma, mean", "result": 2.06, "unit": "h"},
      {"measurement": "AUClast", "setting": "[1]; n = 8, 0 to 48 h, mean", "result": 2.86382, "unit": "µg·h/mL"},
      {"measurement": "AUCinf", "setting": "[1]; n = 8, extrapolated to infinity, mean", "result": "3.01056 ± 0.30261", "unit": "µg·h/mL"},
      {"measurement": "maximum concentration (Cmax)", "setting": "[2]", "result": 0.32798, "unit": "µg/mL"},
      {"measurement": "terminal half-life (T1/2)", "setting": "[2]", "result": 8.92, "unit": "h"},
      {"measurement": "time to reach maximum concentration (Tmax)", "setting": "[2]", "result": 2.68, "unit": "h"},
      {"measurement": "Plasma sample stability (%), mean", "setting": "[3]; human plasma, deep freeze (7 h, −70 °C), 15 ng/mL", "result": 99.61, "unit": "%"},
      {"measurement": "Plasma sample stability (%), mean", "setting": "[3]; human plasma, deep freeze (7 h, −70 °C), 300 ng/mL", "result": 96.77, "unit": "%"},
      {"measurement": "Plasma sample stability (%), mean", "setting": "[3]; human plasma, deep freeze (7 h, −70 °C), 800 ng/mL", "result": 97.96, "unit": "%"},
      {"measurement": "Plasma sample stability (%), mean", "setting": "[3]; human plasma, freeze–thaw (3 cycles), 15 ng/mL", "result": 103.73, "unit": "%"},
      {"measurement": "Plasma sample stability (%), mean", "setting": "[3]; human plasma, freeze–thaw (3 cycles), 300 ng/mL", "result": 98.57, "unit": "%"},
      {"measurement": "Plasma sample stability (%), mean", "setting": "[3]; human plasma, freeze–thaw (3 cycles), 800 ng/mL", "result": 97.71, "unit": "%"},
      {"measurement": "Plasma sample stability (%), mean", "setting": "[3]; human plasma, refrigeration (7 h, 4 °C), 15 ng/mL", "result": 100.61, "unit": "%"},
      {"measurement": "Plasma sample stability (%), mean", "setting": "[3]; human plasma, refrigeration (7 h, 4 °C), 300 ng/mL", "result": 100.02, "unit": "%"},
      {"measurement": "Plasma sample stability (%), mean", "setting": "[3]; human plasma, refrigeration (7 h, 4 °C), 800 ng/mL", "result": 96.29, "unit": "%"},
      {"measurement": "Plasma sample stability (%), mean", "setting": "[3]; human plasma, room temperature (7 h), 15 ng/mL", "result": 102.57, "unit": "%"},
      {"measurement": "Plasma sample stability (%), mean", "setting": "[3]; human plasma, room temperature (7 h), 300 ng/mL", "result": 97.43, "unit": "%"},
      {"measurement": "Plasma sample stability (%), mean", "setting": "[3]; human plasma, room temperature (7 h), 800 ng/mL", "result": 96.99, "unit": "%"},
      {"measurement": "Plasma sample stability (%), mean", "setting": "[3]; processed (LLE) plasma sample, autosampler (30 h, 10 °C), 15 ng/mL", "result": 105.20, "unit": "%"},
      {"measurement": "Plasma sample stability (%), mean", "setting": "[3]; processed (LLE) plasma sample, autosampler (30 h, 10 °C), 300 ng/mL", "result": 97.37, "unit": "%"},
      {"measurement": "Plasma sample stability (%), mean", "setting": "[3]; processed (LLE) plasma sample, autosampler (30 h, 10 °C), 800 ng/mL", "result": 96.83, "unit": "%"},
      {"measurement": "binding to plasma proteins", "setting": "[4]", "result": 38, "unit": "%"},
      {"measurement": "Solution stability (%), mean", "setting": "[5]; stock solution, room temperature (3 h), 15 ng/mL level, vs freshly prepared", "result": 100.89, "unit": "%"},
      {"measurement": "Solution stability (%), mean", "setting": "[5]; stock solution, room temperature (3 h), 800 ng/mL level, vs freshly prepared", "result": 99.25, "unit": "%"},
      {"measurement": "Solution stability (%), mean", "setting": "[5]; working solution, room temperature (7 h), 15 ng/mL level", "result": 100.19, "unit": "%"},
      {"measurement": "Solution stability (%), mean", "setting": "[5]; working solution, room temperature (7 h), 800 ng/mL level", "result": 95.93, "unit": "%"},
      {"measurement": "apparent volume of distribution", "setting": "[6]", "result": "approximately 198 L"},
      {"measurement": "fraction of total clearance by hepatic metabolism (CYP3A4 and CYP2C8)", "setting": "[6]", "result": "< 16", "unit": "%"},
      {"measurement": "oral bioavailability", "setting": "[6]", "result": "approximately 87%"}
    ]}
  ]
}
